Data published in article PMC4779142, “The fully synthetic MAG-Tn3 therapeutic vaccine containing the tetanus toxoid-derived TT830-844 universal epitope provides anti-tumor immunity” (Cancer Immunology, Immunotherapy : CII, 2016).

Tested on: CD4+ T cells from C3H/HeN lymph nodes
Type: cell-based, mouse
Details: n = 5, sc 50 μg peptide with CFA, day 11, 50 μg/mL peptide in vitro

## RNTDGSTDYGILQINSR [HEL, H-2k-restricted HEL45-61 peptide derived from hen egg lysozyme ([…])]
  TNF-α, IL-2 and IFN-γ production by CD4+ T cells on in vitro stimulation with the peptide: able to produce TNF-α, IL-2 and IFN-γ
